Test results reported in PMC7153278, “Discovery of Membrane-Bound Pyrophosphatase Inhibitors Derived from an Isoxazole Fragment” (ACS Medicinal Chemistry Letters, 2020).

Molecular target: Thermotoga maritima mPPase (TmPPase) (Thermotoga maritima, UniProt Q9S5X0)
Test: TmPPase inhibition assay (96-well plate, orthophosphate determination)
Format: biochemical
Conditions: for IC50 [CI95%] / IC50: purified TmPPase; for LE (ligand efficiency): computed using the pIC50 and the Heavy Atom Count (LEHA) normalization method, Discovery Studio; for biological activity (in words): TmPPase; call rule not given here
Method: The inhibition assay was measured in 96 well plate assay as previously reported.5,6 Briefly, 1 µL of purified TmPPase (13 mg/mL) was reactivated in 99 µL of reactivation buffer (20 mM 2-(N-morpholino) ethanesulfonic acid (MES) pH 6.5, 3.5% (v/v) glycerol, 2 mM dithiothreitol (DTT), 4.5% dodecyl maltoside (DDM) and 12 mg/mL L-α-phosphatidylcholine from soybean) and incubated at 55 °C for 15 min. For the assay, to each tube strips, 0.2 µL of the reactivated enzyme was added to 14.8 µL of reaction buffer (200 mM Tris-Cl pH 8.0, 8.0 mM MgCl2, 333 mM KCl, and 67 mM NaCl) and 25 µL of inhibitor. The reaction mixtures were sealed with an adhesive sealing sheet (Thermo Scientific) and incubated at 71 °C for 5 min. The reactions were started with the addition of 10 µL of 2 mM sodium pyrophosphate, further incubation at 71 °C for 5 min and stopped by placing the reaction mixtures on ice for 10 min. The color development was done with the addition of ammonium heptamolybdate + ascorbic acid solution on ice for 10 min and then 90 µL of arsenic solution, at room temperature, for a minimum of 30 min. 180 µL of each reaction mixtures was then transferred into a clear 96 well polystyrene microplate and the absorbance was measured at 860 nm using a microplate spectrophotometer (MultiSkan Go, Thermo Scientific). The pilot inhibitor screening of 16 phosphate-mimicking fragments was done at 100 μM inhibitor concentration. Further screening was done with three different concentrations; 1 μM, 5 μM and 50 μM for soluble compounds, and 1 μM, 5 μM, and 20 μM for sparingly soluble compounds.6 The best hits were validated using 8 concentrations in triplicate in TmPPase.
The potent hits 12k and 12l compounds were then tested on the P. falciparum (PfPPase-VP1) membrane fractions expressed in baculovirus-infected insect cells (the expression method and further enzyme analysis will be described in more detail elsewhere). Briefly, to each tube strips, 2.4 µL of PfPPase-VP1 membrane fraction (5 mg/mL) was added into 12.6 µL of reaction buffer (200 mM Tris-Cl pH 8.0, 8.0 mM MgCl2, 333 mM KCl, 67 mM NaCl, 3.3 mM NaF, and 17 μM Gramicidin D) and 25 µL of inhibitor. The reaction mixtures were incubated at 30 °C for 5 min and the assay was started by the addition of 10 µL of 2 mM sodium pyrophosphate and further incubation at 30 °C for 10 min. The reaction termination and color development were done as before.
The in vitro anti-plasmodial activity assay strain 3D7 was maintained in culture as described previously.7 Briefly, parasites were cultured in O+ human erythrocytes at 5% haematocrit in RPMI - 1640 medium supplemented with 0.5% Albumax II (Gibco, Carlsbad, CA, USA), 200 μM hypoxanthine (Sigma, St. Louis, MO, USA) and 20 μg/mL gentamycin (Gibco). Parasites were synchronized with the sorbitol method as described. 8 Test compound was dissolved in DMSO to make a stock solution of 10 mM. Two -fold serial dilutions of the test compound were made in the culture medium to cover the range of 400 µM – 400 nM. Fifty microliters of each dilution were mixed in 96 well plate with 150 µL of 2% haematocrit of 0.5% parasitemia (ring stage). DMSO concentration in the highest compound concentration w as 0.1%. After 72 h incubation at 37 °C, the parasite growth was quantified using fluorescent SYBR Green I ® -based assay as described. 9 The half-maximal inhibitory concentration (IC 50) of the test compound was assessed using the non-linear regression fit model in Prism 7 (GraphPad Software). The potent anti-malarial drug, artemisinin, was use in parallel as a positive control. Each concentration of the test compound was tested in duplicate and the assay was repeated three times. The mean and standard deviation of the three repeats were used to estimate the IC50.
IC50 determinations were done using R 3.6.110 and the n-parameter logistic regression (nplr) package11 version 0.1-7. In this package, the weighted nplr, given x (compound concentrations) and […]

[1] = 95% confidence interval in square brackets
[2] = IC50 [CI95%] (µM), unrounded values of the molecular formula strings file
[3] = IC50 [CI95%], 95% confidence interval in square brackets

Chain of Thermotoga maritima mPPase (TmPPase) (Q9S5X0 whole entry): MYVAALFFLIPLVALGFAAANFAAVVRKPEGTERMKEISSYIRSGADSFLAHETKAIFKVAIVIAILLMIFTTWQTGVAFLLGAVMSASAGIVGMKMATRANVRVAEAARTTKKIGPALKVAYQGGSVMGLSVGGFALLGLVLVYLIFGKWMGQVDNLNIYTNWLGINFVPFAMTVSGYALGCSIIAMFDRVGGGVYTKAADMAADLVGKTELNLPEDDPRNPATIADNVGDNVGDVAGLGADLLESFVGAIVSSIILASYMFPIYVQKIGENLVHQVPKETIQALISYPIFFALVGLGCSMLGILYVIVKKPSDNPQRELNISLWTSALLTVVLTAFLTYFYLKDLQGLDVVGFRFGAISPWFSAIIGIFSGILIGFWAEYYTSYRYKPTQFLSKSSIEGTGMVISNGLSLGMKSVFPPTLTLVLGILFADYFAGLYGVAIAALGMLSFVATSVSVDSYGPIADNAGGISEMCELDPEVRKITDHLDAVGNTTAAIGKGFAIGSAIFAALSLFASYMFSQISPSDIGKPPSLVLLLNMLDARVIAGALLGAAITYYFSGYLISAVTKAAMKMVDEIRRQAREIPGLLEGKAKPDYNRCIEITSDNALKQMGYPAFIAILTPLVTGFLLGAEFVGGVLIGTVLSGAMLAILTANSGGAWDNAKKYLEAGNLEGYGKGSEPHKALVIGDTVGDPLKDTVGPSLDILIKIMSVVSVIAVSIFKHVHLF

Row | Structure (SMILES) | IC50 [CI95%] [1] | other results
1 | Nc1ccc(S(=O)(=O)NC2=NCCS2)cc1 [SI-2] | Inactive | 
2 | CCOC(=O)c1cc(-c2ccc(OC)c(S(=O)(=O)NC3CCCC3)c2)on1 [SI-26] | Inactive | 
3 | CCOC(=O)c1cc(-c2ccc(OC)c(S(=O)(=O)N3CCCc4ccccc43)c2)on1 [SI-20] | Inactive | 
4 | CC(C)(C)c1cc(C(=O)Nc2ccc(S(N)(=O)=O)cc2)cc(C(C)(C)C)c1 [Compound 14] |  | LE (ligand efficiency): 0.16
5 | Nc1ccc(CO)c(B(O)O)c1 [SI-1] | Inactive | 
6 | O=C(Oc1ccccc1Br)c1cc(-c2ccc([N+](=O)[O-])cc2)[nH]n1 [SI-53] | Slightly | 
7 | CCOC(=O)c1cc(-c2ccc(OC)c(S(=O)(=O)Nc3cc(C)on3)c2)on1 [SI-17] |  | IC50 [2]: 240 µM; IC50 [3]: 240 µM
8 | CC(C)(C)c1cccc(-c2cc(C(=O)Oc3ccccc3Br)no2)c1 [Compound 12j] |  | LE (ligand efficiency): 0.20
9 | CC(C)(C)c1cc(CCC(=O)O)cc(C(C)(C)C)c1 [Compound 20] | Inactive | 
10 | CC(C)(C)c1cc(CN)cc(C(C)(C)C)c1 [SI-45] | Inactive | 
11 | CCOC(=O)c1cc(-c2ccc(OC)c(S(=O)(=O)N3CCOc4ccccc43)c2)on1 [SI-22] | Inactive | 
12 | CCOC(=O)c1cc(-c2cccc(C(=O)OC)c2)on1 [Compound 10c] | Inactive | 
13 | CC(C)(C)c1cc(C(N)=O)cc(C(C)(C)C)c1 [SI-43] | Inactive | 
14 | CCOC(=O)c1cc(-c2ccc(OC)c(S(=O)(=O)Nc3ncccc3C)c2)on1 [SI-18] | Inactive | 
15 | CCOC(=O)c1cc(-c2cccc(C(C)(C)C)c2)on1 [Compound 10j] | Slightly active | IC50 [2]: 1210 µM
16 | O=C(O)c1cc(-c2cc(C(F)(F)F)cc(C(F)(F)F)c2)on1 [Compound 11m] |  | biological activity (in words): did not lead to the desired activity
17 | O=C(O)CN1C(=O)c2ccccc2S1(=O)=O [SI-9] | Inactive | 
18 | CCOC(=O)c1cc(-c2csc(Nc3ccccc3)n2)on1 [SI-16] | Inactive | 
19 | CCOC(=O)c1cc(-c2ccc(OC)c(S(=O)(=O)N3CCc4ccccc43)c2)on1 [SI-25] | Inactive | 
20 | Cc1ccc(-c2cc(C(=O)Oc3ccccc3Br)no2)cc1C [SI-54] |  | IC50 [2]: 17.4 µM; IC50 [3]: 17 µM; LE (ligand efficiency): 0.20
21 | Cc1nc(-c2cc(C(=O)Oc3ccccc3Br)no2)cs1 [Compound 25] |  | fold loss in activity compared to the carboxylic acids (2-bromophenyl carboxylates 25 and 26 versus 5 and 23): 27 fold

Row | Structure (SMILES) | IC50 [CI95%] [1] | other results
22 | CC(C)(C)c1cc(CC(=O)O)cc(C(C)(C)C)c1 [SI-42] | Inactive | 
23 | O=C(O)c1cc(-c2ccc([N+](=O)[O-])cc2)on1 [Compound 11h] |  | biological activity (in words): did not lead to the desired activity
24 | O=C(O)c1cc(-c2cccc(-c3cc(C(=O)O)no3)c2)on1 [Compound 11n] |  | biological activity (in words): neither the carboxylic acid 11n nor the ester 10n were notably active
25 | CCOC(=O)c1cc(-c2csc(CS(C)(=O)=O)n2)on1 [SI-13] | Inactive | 
26 | O=C(O)CS(=O)(=O)c1ccccc1[N+](=O)[O-] [SI-4] | Inactive | 
27 | CCOC(=O)c1cc(-c2ccc([N+](=O)[O-])cc2)on1 [Compound 10h] | Inactive | 
28 | CCOC(=O)c1cc(-c2ccc(OC)c(S(=O)(=O)Nc3ccc(Cl)cc3)c2)on1 [SI-33] |  | IC50 [2]: 280 µM; IC50 [3]: 280 µM
29 | CC(C)(C)c1cc(C(=O)Nc2ccccc2C(=O)O)cc(C(C)(C)C)c1 [SI-47] | Inactive | 
30 | CCOC(=O)c1cc(-c2csc(-c3cccc(Cl)c3)n2)on1 [SI-15] | Inactive | 
31 | CCOC(=O)c1cc(-c2ccc(OC)c(S(=O)(=O)Nc3ccc(Cl)cc3F)c2)on1 [SI-32] |  | IC50 [2]: 122 µM; IC50 [3]: 122 µM
32 | CCOC(=O)c1cc(-c2ccccc2OC)on1 [Compound 10e] | Inactive | 
33 | CCOC(=O)c1cc(-c2ccc(OC)c(S(=O)(=O)Nc3ccc(F)cc3Cl)c2)on1 [SI-29] |  | IC50 [2]: 180 µM; IC50 [3]: 180 µM
34 | Cc1cc(C)cc(-c2cc(C(=O)Nc3ccccc3Br)no2)c1 [Compound 28] |  | biological activity (in words): inactive
35 | O=C(Oc1ccccc1Br)c1cc(-c2ccc([N+](=O)[O-])cc2)on1 [Compound 12h] |  | IC50 [2]: 19.6 µM; IC50 [3]: 20 µM; LE (ligand efficiency): 0.19
36 | O=C(O)c1cc(-c2ccccc2)on1 [Compound 11a] |  | biological activity (in words): inactive
37 | O=C(O)c1csc(-c2ccc(C(F)(F)F)cc2)n1 [SI-52] | Inactive | 
38 | Nc1nnnn1CC(=O)O [SI-11] | Inactive | 
39 | CC1(C)CS(=O)(=O)N(c2ccc(S(=O)(=O)Cl)cc2)C1=O [SI-5] | Inactive | 
40 | COc1ccc(-c2cc(C(=O)O)no2)cc1S(=O)(=O)N1CCCC1 [SI-28] | Inactive | 
41 | CCOC(=O)c1cc(-c2cccc(C)c2)on1 [Compound 10i] | Inactive | 
42 | O=C1CS(=O)(=O)c2ccccc21 [SI-7] | Inactive | 

Row | Structure (SMILES) | IC50 [CI95%] [1] | other results
43 | O=C(O)c1ccc2c(c1)S(=O)(=O)NC2=O [SI-6] | Inactive | 
44 | CCOC(=O)c1cc(-c2cccc(OC)c2)on1 [Compound 10f] | Inactive | 
45 | CCOC(=O)c1cc(-c2ccc(OC)c(S(=O)(=O)N3CCCC3)c2)on1 [SI-27] | Inactive | 
46 | CCOC(=O)c1cc(-c2ccc(OC)c(S(=O)(=O)N3CC(=O)Nc4ccccc43)c2)on1 [SI-21] | Inactive | 
47 | Cc1cc(C)cc(-c2cc(C(=O)Oc3ccccc3)no2)c1 [Compound 27] |  | LE (ligand efficiency): 0.20; fold loss of inhibition on removing the bromine atom (versus 12k): 3.6 fold
48 | O=C(O)c1cnc(-c2ccccc2)s1 [Compound 23] |  | LE (ligand efficiency): 0.32
49 | COc1ccc(-c2cc(C(=O)O)no2)cc1S(=O)(=O)N1CCOCC1 [SI-24] | Inactive | 
50 | CCOC(=O)c1cc(-c2ccc(OC)c(S(=O)(=O)Nc3ccc(F)c(Cl)c3)c2)on1 [SI-31] |  | IC50 [2]: 58 µM; IC50 [3]: 58 µM
51 | O=c1[nH]c2ccc(S(=O)(=O)CCO)cc2o1 [Compound 2] |  | LE (ligand efficiency): 0.27
52 | CCOC(=O)c1cc(-c2ccccc2C(=O)OC)on1 [Compound 10b] | Inactive | 
53 | CCOC(=O)c1cc(-c2ccc(C(=O)OC)cc2)on1 [Compound 10d] | Inactive | 
54 | Cc1c(-c2cc(C(=O)O)no2)cnn1C [Compound 6] | Inactive | biological activity (in words): lacked biological activity
55 | O=C(O)c1cc(-c2ccc([N+](=O)[O-])cc2)[nH]n1 [Compound 22] | Inactive | 
56 | Nc1ccc(S(=O)(=O)NCC(=O)O)cc1 [SI-8] | Inactive | 
57 | CC(C)(C)c1cc(CO)cc(C(C)(C)C)c1 [SI-46] | Inactive | 
58 | CCOC(=O)c1cc(-c2ccccc2)[nH]n1 [SI-50] | Inactive | 
59 | CCOC(=O)c1cc(-c2cccc(-c3cc(C(=O)OCC)no3)c2)on1 [Compound 10n] |  | biological activity (in words): neither the carboxylic acid 11n nor the ester 10n were notably active
60 | CC(C)(C)c1cc(C(=O)OCCN2CCOCC2)cc(C(C)(C)C)c1 [SI-49] |  | IC50 [2]: 340 µM; IC50 [3]: 340 µM
61 | CS(=O)(=O)Nc1ccc(C#N)cc1 [SI-12] | Inactive | 
62 | CC(C)(C)c1cc(C(=O)NCC(=O)O)cc(C(C)(C)C)c1 [Compound 19] | Inactive | 
